Assay results reported in patent US20020025929A1, “METHOD OF BUILDING AND MAINTAINING BONE” (priority 1997, published 2002).
Marks after values point to notes of the source that are not given here.

Columns and labels:
Assay type in all cases: in vivo, Sprague-Dawley rats
[1] = test system: osteopenic ovariectomized rats; test: Three point bending test of femora mid-shaft; set-up: I (moment of inertia): unit not given beside the values; conditions: OVX rats; for E (Young's modulus) / Fu (ultimate force) / I (moment of inertia) / t (cortical thickness) / u (toughness) / σu (strength): femora mid-shaft, mean ± SEM; for load to failure (Fu) and toughness of femora mid-shaft (in words): 1a dose-dependent up to 1 mg/kg, EE2 0.1 mg/kg, PTH (1-34) 45 and 90 days, combination
Procedure: Bone strength was measured for the femoral neck, midshaft, and the L-6 vertebra. Femora were thawed before testing, and bone strength was measured on intact femora using a three point bending test. Load was applied midway between two supports that were 15 mm apart. The femora were positioned so the loading point was 7.5 mm proximal from the distal popliteal space and bending occurred about the medial-lateral axis. Specimens were tested in a saline bath at 37° C. Each specimen was submerged in the saline bath for three minutes before testing to allow equilibration of temperature. Load-displacement curves were recorded at a crosshead speed of 1 mm/sec using a servo-hydraulic materials testing machine (MTS Corp., Minneapolis, Minn.) and an x-y recorder (Hewlett Packard 7090A, Palo Alto, Calif.). The measurements included: cross-sectional moment of inertia (I), cortical thickness (t), ultimate load (Fu), ultimate stress (σu), Young's modulus (E), and toughness (u). These values were calculated as described previously (Turner and Burr 1993; Turner et al. 1996).
(§1) In a second study, virgin Sprague-Dawley rats were bilaterally ovariectomized (except for the sham-operated group), the ovariectomized animals randomized, and allowed to lose bone for one month prior to treatment in the manner described above. The animal groups, each containing 7-8 animals, included sham-operated animals (SHAM); bilaterally ovariectomized animals (OVX); bilaterally ovariectomized animals treated with 0.01, 0.3 or 1 mg/kg/day of compound 1a, respectively, for three months; bilaterally ovariectomized animals treated subcutaneously with PTH(1-34) at a dose of 10 μg/kg/day for three months; bilaterally ovariectomized animals treated subcutaneously with PTH(1-34) at a dose of 10 μg/kg/day and orally with compound 1a at a dose of 0.3 mg/kg/day, both compounds administered for three months; bilaterally ovariectomized animals treated subcutaneously with PTH(1-34) at a dose of 10 μg/kg/day for forty-five days followed by gavage administration of vehicle for forty-five days; bilaterally ovariectomized animals treated subcutaneously with PTH(1-34) at a dose of 10 μg/kg/day for forty-five days followed by oral administration of only compound 1a at a dose of 0.3 mg/kg/day for forty-five days; and bilaterally ovariectomized animals treated with 17α-ethynyl estradiol administered orally at a dose of 0.1 mg/kg/day.

[2] = test system: osteopenic ovariectomized rats; test: Femoral neck strength (shear loading of proximal femur); set-up: Neck Fu (ultimate force): unit not given beside the values; conditions: OVX rats; for Neck Fu (ultimate force): proximal femora in shear, mean ± SEM
Procedure: Femoral neck strength was measured by mounting the proximal half of the femur vertically in a chuck and applying downward force at a rate of 1 mm/sec on the femoral head until the neck failed. The ultimate load was calculated as the maximum force sustained by the femoral neck. All tests were done at room temperature using the MTS system.
as §1

[3] = test system: osteopenic ovariectomized rats; test: Compression testing of L-6 vertebra; conditions: OVX rats; for vertebral strength (Su) and toughness of L-6 vertebra (in words): continuous treatment (PTH 90 days); for Vert E (Young's modulus) / Vert u (toughness) / Vert σu (vertebral strength): lumbar vertebra in compression, mean ± SEM
Procedure: Bone strength of L-6 vertebrae was measured after the posterior processes were removed and the ends of the centrum made parallel using a diamond wafering saw (Buehler Isomet, Evanston, Ill.). Ultimate stress (σu) Young's modulus (E), and toughness (u) for each vertebra was measured in compression at a load rate of 50 N/sec using the MTS machine. The compressive load was applied through a pivoting platen to correct for nonparallel alignment of the faces of the vertebral body (Turner and Burr, 1993).
Specimens were tested in saline solution at 37° C. Ultimate stress was calculated as the maximum load divided by the gross cross-sectional area πAB/4, where A and B are the vertebral widths in the anterior-posterior and medial lateral directions. Young's modulus was calculated by multiplying stiffness times 4T/πAB, where T is the specimen thickness. Toughness was calculated as the area under the load-displacement curve divided by πABT/4.
as §1

[4] = test system: osteopenic rats; test: Micro-CT of distal femur metaphysis; conditions: continuous treatment, 1a 0.01-1 mg/kg, 17α-ethynyl estradiol 0.1 mg/kg, PTH (1-34), 1a 0.3 mg/kg with PTH (1-34), FIG. 2
Procedure: (§2) The metaphysis of proximal tibiae were scanned longitudinally from baseline, using a 960A pQCT loaded with Dichte software version 5.2 (Norland/Stratec, Ft. Atkinson, Wis.), using the technique described by Sato et al., —1995, JPET 272:1252-1259; Sato 1995, Bone 17:157S-162S). Volumetric bone mineral density (BMD, mg/cm3), cross-sectional area (X-Area), voxel number, and mineral content (BMC, mg) were quantitated for the whole cross-section of the metaphysis. Sites of excised bones were analyzed at higher resolution, using a micro-CT (Stratec). Specifically, distal femora (below the condyles, see Sato et al. 1995) and L-3 vertebra (mid-cross section, Helterbrand et al., 1997, Bone 21:401-409) were analyzed using voxel dimensions of 50 ×50×1000 μm and 70×70×1000 μm, respectively.
(§3) In a second study, virgin Sprague-Dawley rats were bilaterally ovariectomized (except for the sham-operated group), the ovariectomized animals randomized, and allowed to lose bone for one month prior to treatment in the manner described above. […]

[5] = test system: osteopenic rats; test: Micro-CT of L-3 vertebra; conditions: continuous dosing, 1a 0.01-1 mg/kg, 17α-ethynyl estradiol 0.1 mg/kg, PTH (1-34), 1a 0.3 mg/kg with PTH (1-34), FIG. 3
Procedure: as §2, §3

[6] = continuous treatment (PTH 90 days)
[7] = Cmpd 1a 0.01 mg/kg/day oral, 3 months
[8] = Cmpd 1a 0.3 mg/kg/day oral, 3 months
[9] = Cmpd 1a 1 mg/kg/day oral, 3 months
[10] = Cmpd. 1a 0.01 mg/kg/day oral, 3 months
[11] = Cmpd. 1a 0.3 mg/kg/day oral, 3 months
[12] = Cmpd. 1a 1 mg/kg/day oral, 3 months
[13] = 3 months: PTH (1-34) 10 μg/kg/day s.c., 1a 0.3 mg/kg/day oral + PTH, EE2 0.1 mg/kg/day oral
[14] = PTH (1-34) discontinued after 45 days or switched to compound 1a
[15] = PTH (1-34) 10 μg/kg/day s.c. 45 days, then vehicle or 1a 0.3 mg/kg/day oral 45 days

COc1ccc(-c2sc3cc(O)ccc3c2Oc2ccc(OCCN3CCCCC3)cc2)cc1 [Compound 1a, 6-hydroxy-2-(4-methoxyphenyl)-3-[4-(2-piperidin-1-ylethoxy)phenoxy]-benzo[b]thiophene]
cortical thickness of femora mid-shaft (in words) [1, 6]: intermediate between Sham and OVX | E (Young's modulus) [1, 7]: 9081 ± 446 | Fu (ultimate force) [1, 7]: 160 ± 5^s | I (moment of inertia) [1, 7]: 4.35 ± .21 | t (cortical thickness) [1, 7]: .635 ± .020^s,o | u (toughness) [1, 7]: 3.72 ± .26^s,o | σu (strength) [1, 7]: 199 ± 5^s,o | E (Young's modulus) [1, 8]: 8844 ± 431 | Fu (ultimate force) [1, 8]: 164 ± 4^s,o | I (moment of inertia) [1, 8]: 4.05 ± .17^o | t (cortical thickness) [1, 8]: .654 ± .012^s,o | u (toughness) [1, 8]: 4.13 ± .24^o | σu (strength) [1, 8]: 217 ± 5^o | E (Young's modulus) [1, 9]: 10087 ± 520 | Fu (ultimate force) [1, 9]: 174 ± 4^o | I (moment of inertia) [1, 9]: 4.17 ± .21 | t (cortical thickness) [1, 9]: .671 ± .010^s,o | u (toughness) [1, 9]: 4.52 ± .25^o | σu (strength) [1, 9]: 228 ± 9^o | load to failure (Fu) and toughness of femora mid-shaft (in words) [1]: improved load to failure (Fu) and toughness in a dose-dependent manner to above OVX and not different from Sham at 1 mg/kg | Neck Fu (ultimate force) [2, 10]: 112 ± 4.7 | Neck Fu (ultimate force) [2, 11]: 114 ± 5.1 | Neck Fu (ultimate force) [2, 12]: 117 ± 3.1 | vertebral strength (Su) and toughness of L-6 vertebra (in words) [3]: improved vertebral strength (Su) and toughness in a dose-dependent manner to above OVX | Vert E (Young's modulus) [3, 10]: 540 ± 72 | Vert u (toughness) [3, 10]: 1.72 ± 0.44 | Vert σu (vertebral strength) [3, 10]: 24.8 ± 2.3^s | Vert E (Young's modulus) [3, 11]: 436 ± 76 | Vert u (toughness) [3, 11]: 1.97 ± 0.37 | Vert σu (vertebral strength) [3, 11]: 28.3 ± 1.9^o | Vert E (Young's modulus) [3, 12]: 384 ± 30 | Vert u (toughness) [3, 12]: 2.30 ± 0.29^o | Vert σu (vertebral strength) [3, 12]: 27.8 ± 1.5^o | BMD of distal femur metaphysis (micro-CT) [4]: prevented further bone loss | spinal BMD or BMC of L-3 vertebra (micro-CT) [5]: marginal effects

C#C[C@]1(O)CC[C@H]2[C@@H]3CCc4cc(O)ccc4[C@H]3CC[C@@]21C [EE2, 17α-ethynyl estradiol]
cortical thickness of femora mid-shaft (in words) [1, 6]: intermediate between Sham and OVX | E (Young's modulus) [1, 13]: 10002 ± 844 | Fu (ultimate force) [1, 13]: 182 ± 11^o | I (moment of inertia) [1, 13]: 4.42 ± .33 | t (cortical thickness) [1, 13]: .686 + .015^o | u (toughness) [1, 13]: 4.62 ± .52^o | σu (strength) [1, 13]: 225 ± 13^o | load to failure (Fu) and toughness of femora mid-shaft (in words) [1]: above OVX and not different from Sham | Neck Fu (ultimate force) [2, 13]: 110 ± 6.1 | Vert E (Young's modulus) [3, 13]: 579 ± 94 | Vert u (toughness) [3, 13]: 1.44 ± 0.37 | Vert σu (vertebral strength) [3, 13]: 28.1 ± 2.6^o | BMD of distal femur metaphysis (micro-CT) [4]: prevented further bone loss | spinal BMD or BMC of L-3 vertebra (micro-CT) [5]: marginal effects

PTH: N-terminal 1-34 fragment of human parathyroid hormone, hPTH(1-34, Sequence ID No. 3); PTH/vehicle = 45 days PTH then vehicle
cortical thickness of femora mid-shaft (in words) [1, 14]: lowered cortical thickness to below Sham | cortical thickness of femora mid-shaft (in words) [1, 6]: increased cortical thickness above OVX | E (Young's modulus) [1, 13]: 9854 ± 597 | Fu (ultimate force) [1, 13]: 202 ± 7^o | I (moment of inertia) [1, 13]: 4.86 ± .26 | t (cortical thickness) [1, 13]: .739 ± .023^o | u (toughness) [1, 13]: 5.24 ± .52^o | σu (strength) [1, 13]: 234 ± 9^o | E (Young's modulus) [1, 15]: 8516 ± 580 | Fu (ultimate force) [1, 15]: 171 ± 4^o | I (moment of inertia) [1, 15]: 4.72 ± .17 | t (cortical thickness) [1, 15]: .630 ± .010^s | u (toughness) [1, 15]: 3.81 ± .24^s,o | σu (strength) [1, 15]: 205 ± 6^s,o | load to failure (Fu) and toughness of femora mid-shaft (in words) [1]: improved Fu to above OVX | ultimate load for the femora neck (in words) [2]: higher than OVX and Sham | Neck Fu (ultimate force) [2, 13]: 148 ± 2.6^s,o | Neck Fu (ultimate force) [2, 15]: 116 ± 6.2 | vertebral strength (Su) of L-6 vertebra (in words) [3, 14]: lowered Su to below Sham | vertebral strength (Su) and toughness of L-6 vertebra (in words) [3]: increased Su and toughness to above OVX and Sham levels | Vert E (Young's modulus) [3, 13]: 686 ± 77 | Vert u (toughness) [3, 13]: 3.68 ± 1.10^s,o | Vert σu (vertebral strength) [3, 13]: 45.5 ± 2.4^s,o | Vert E (Young's modulus) [3, 15]: 524 ± 109 | Vert u (toughness) [3, 15]: 1.16 ± 0.22 | Vert σu (vertebral strength) [3, 15]: 24.2 ± 2.5^s | BMD of distal femur metaphysis (micro-CT) [4]: increased BMD was observed to levels significantly beyond OVX, Sham, and baseline levels | spinal BMD or BMC of L-3 vertebra (micro-CT) [5]: improved BMD to significantly above OVX
